Patent US10780090B2, “Heteroaryl compounds useful as inhibitors of SUMO activating enzyme” (Millennium Pharmaceuticals, Inc., priority 2014, dated 2020)
Where two headings read alike, the source gives them in different places.

Target: recombinant human SAE enzyme (Homo sapiens (Human), UniProt Q9UBT2)
Assay: SAE HTRF enzyme assay
Format: biochemical
Conditions: for inhibition at 0.111 µM: read-out: Percent Inhibition
Protocol: Example 215: SAE HTRF enzyme assay
The SAE enzymatic reaction totals 50 μl and contains 50 mM HEPES Hemisodium (pH 7.5), 0.05% BSA, 5 mM MgCl2, 0.5 μM ATP, 250 μM GSH, 0.01 μM Ubc9-GST, 0.125 μM Sumo-Flag and 0.11 nM recombinant human SAE enzyme. The enzymatic reaction mixture, with and without inhibitor, Is incubated at 24° C. for 105 min in a 384-well plate before termination with […] of Stop/Detection buffer (0.1M HEPES Hemisodium pH 7.5, 0.05% Tween20, 20 mM EDTA, 410 mM KF, 0.53 nM Europium-Cryptate labeled monoclonal anti-Flag M2 Antibody (CisBio International) and 8.125 μg/ml PHYCOLINK goat anti-GST allophycocyanin (XL-APC) antibody (Prozyme)). After incubation for 2 hours at 24° C., quantification of FRET is performed on the Pherostar™ (BMG Labtech). Percentage inhibition values at a single concentration or enzyme inhibition (IC50) values are determined from those curves. One skilled in the art will appreciate that the values generated either as percentage inhibition at a single concentration or IC50 values are subject to experimental variation.

[1] = SAE inhibition at compound concentration 0.111 μM
[2] = SAE inhibition, class symbols, legend in nM

recombinant human SAE enzyme, sequence (Q9UBT2 whole entry): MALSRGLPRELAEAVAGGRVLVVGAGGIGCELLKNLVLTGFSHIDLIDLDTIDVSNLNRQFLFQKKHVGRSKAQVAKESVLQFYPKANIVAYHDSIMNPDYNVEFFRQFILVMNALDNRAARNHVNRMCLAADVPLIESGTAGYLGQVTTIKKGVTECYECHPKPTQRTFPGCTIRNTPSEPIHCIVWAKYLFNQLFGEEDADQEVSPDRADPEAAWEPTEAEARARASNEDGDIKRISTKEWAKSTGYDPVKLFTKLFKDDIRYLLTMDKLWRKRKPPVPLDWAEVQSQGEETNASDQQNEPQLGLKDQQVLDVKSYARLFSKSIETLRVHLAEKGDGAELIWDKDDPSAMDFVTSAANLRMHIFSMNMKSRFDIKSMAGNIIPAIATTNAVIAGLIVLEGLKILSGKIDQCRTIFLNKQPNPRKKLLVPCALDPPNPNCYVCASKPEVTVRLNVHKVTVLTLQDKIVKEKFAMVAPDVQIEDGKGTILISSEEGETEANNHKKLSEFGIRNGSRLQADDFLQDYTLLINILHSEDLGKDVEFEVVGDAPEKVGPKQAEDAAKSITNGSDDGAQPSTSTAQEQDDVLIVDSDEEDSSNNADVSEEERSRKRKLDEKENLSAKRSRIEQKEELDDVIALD
recombinant human SAE enzyme, sequence (Q9UBE0 whole entry partner): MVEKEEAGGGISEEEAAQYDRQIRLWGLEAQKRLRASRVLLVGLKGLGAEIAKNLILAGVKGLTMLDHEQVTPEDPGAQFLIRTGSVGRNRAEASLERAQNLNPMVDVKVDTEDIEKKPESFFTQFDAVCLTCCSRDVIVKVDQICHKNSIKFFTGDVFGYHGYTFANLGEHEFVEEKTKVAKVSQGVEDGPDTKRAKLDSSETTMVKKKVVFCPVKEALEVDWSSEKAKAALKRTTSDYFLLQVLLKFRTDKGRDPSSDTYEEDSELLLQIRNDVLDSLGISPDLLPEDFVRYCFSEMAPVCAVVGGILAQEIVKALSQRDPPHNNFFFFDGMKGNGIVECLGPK

SMILES	Percent Inhibition [1]	IC50 [2]	IC50 (class symbols A/B/C)	also measured
NS(=O)(=O)OC[C@H]1C[C@@H](Nc2ncncc2C(=O)c2cc([C@@H]3OCCc4ccc(Cl)cc43)c(C(F)F)s2)C[C@@H]1O [I-361, (1R,2S,4R)-4-[[5-[4-[(R)-7-chloroisochroman-1-yl]-5-(difluoromethyl)thiophene-2-carbonyl]pyrimidin-4-yl]amino]-2-hydroxy-cyclopentyl]methyl sulfamate and (1R,2S,4R)-4-[[5-[4-[(1S)-7-chloroisochroman-1-yl]-5-(difluoromethyl)thiophene-2-carbonyl]pyrimidin-4-yl]amino}-2-hydroxy-cyclopentyl]methyl sulfamate]	95%	< 10 nM	–	–
Cc1sc(C(=O)c2cncnc2N[C@@H]2C[C@H](COS(N)(=O)=O)[C@@H](O)C2)nc1[C@H](O)c1cccc(Cl)c1 (single isomer, unassigned) [I-355a, [(1R,2S,4R)-4-{[5-({4-[(R)-(3-chlorophenyl)(hydroxy)methyl]-5-methyl-1,3-thiazol-2-yl}carbonyl)pyrimidin-4-yl]amino}-2-hydroxycyclopentyl]methyl sulfamate or [(1R,2S,4R)-4-{[5-({4-[(S)-(3-chlorophenyl)(hydroxy)methyl]-5-methyl-1,3-thiazol-2-yl}carbonyl)pyrimidin-4-yl]amino}-2-hydroxycyclopentyl]methyl sulfamate]	98%	< 10 nM	–	–
NS(=O)(=O)OC[C@H]1C[C@@H](Nc2ncncc2C(=O)c2cc(Cn3ccc4ccccc43)cs2)C[C@@H]1O [I-114, {(1R,2S,4R)-2-hydroxy-4-[(5-{[4-(1H-indol-1-ylmethyl)-2-thienyl]carbonyl}pyrimidin-4-yl)amino]cyclopentyl}methyl sulfamate]	–	–	< 10 nM	inhibition at 0.111 µM (Concentration 0.111 μM): 97%
NS(=O)(=O)OC[C@H]1C[C@@H](Nc2ncncc2C(=O)c2ncc(Cc3ccccc3)s2)[C@H](O)[C@@H]1O [I-350, [(1R,2R,3S,4R)-4-({5-[(5-benzyl-1,3-thiazol-2-yl)carbonyl]pyrimidin-4-yl}amino)-2,3-dihydroxycyclopentyl]methyl sulfamate]	–	10 to 100 nM	–	inhibition at 0.111 µM [1]: 75%
Cc1sc(C(=O)c2cncnc2N[C@@H]2C[C@H](COS(N)(=O)=O)[C@@H](O)C2)cc1[C@@H]1OCCc2cccnc21 (single isomer, unassigned) [I-285b, [(1R,2S,4R)-4-{[5-({4-[(8S)-5,8-dihydro-6H-pyrano[3,4-b]pyridin-8-yl]-5-methyl-2-thienyl}carbonyl)pyrimidin-4-yl]amino}-2-hydroxycyclopentyl]methyl sulfamate or [(1R,2S,4R)-4-{[5-({4-[(8R)-5,8-dihydro-6H-pyrano[3,4-b]pyridin-8-yl]-5-methyl-2-thienyl}carbonyl)pyrimidin-4-yl]amino}-2-hydroxycyclopentyl]methyl sulfamate]	44%	100 to 1000 nM	–	–
Cc1sc(C(=O)c2cncnc2N[C@@H]2C[C@H](COS(N)(=O)=O)[C@@H](OC(=O)[C@@H](N)C(C)C)C2)cc1[C@@H]1OCCc2ccc(Cl)cc21 [I-338, (1S,2R,4R)-4-{[5-({4-[(1R)-7-Chloro-3,4-dihydro-1H-isochromen-1-yl]-5-methyl-2-thienyl}carbonyl)pyrimidin-4-yl]amino}-2-[(sulfamoyloxy)methyl]cyclopentyl (2S)-2-amino-3-methylbutanoate]	–	10 to 100 nM	–	inhibition at 0.111 µM [1]: 56%
CO[C@@H](c1cccc(Br)c1)c1csc(C(=O)c2cncnc2N[C@@H]2C[C@H](COS(N)(=O)=O)[C@@H](O)C2)c1 (single isomer, unassigned) [I-73a, [(1R,2S,4R)-4-{[({(4-[(S)-(3-Bromophenyl)(methoxy)methyl]-2-thienyl}carbonyl)pyrimidin-4-yl]amino}-2-hydroxycyclopentyl]methyl sulfamate or [(1R,2S,4R)-4-{[5-({4-[(R)-(3-Bromophenyl)(methoxy)methyl]-2-thienyl}carbonyl)pyrimidin-4-yl]amino}-2-hydroxycyclopentyl]methyl sulfamate]	–	–	< 10 nM	Percent Inhibition (Concentration 0.111 μM): 98
NS(=O)(=O)OC[C@H]1C[C@@H](Nc2ncncc2C(=O)c2cc([S@+]([O-])c3cccc(C(F)(F)F)c3)c(Cl)s2)C[C@@H]1O (mixture of isomers) [I-122, [(1R,2S,4R)-4-({5-[(5-chloro-4-{(R)-[3-(trifluoromethyl)phenyl]sulfinyl}-2-thienyl)carbonyl]pyrimidin-4-yl}amino)-2-hydroxycyclopentyl]methyl sulfamate and [(1R,2S,4R)-4-({5-[(5-chloro-4-{(S)-[3-(trifluoromethyl)phenyl]sulfinyl}-2-thienyl)carbonyl]pyrimidin-4-yl}amino)-2-hydroxycyclopentyl]methyl sulfamate]	–	–	< 10 nM	Percent Inhibition (Concentration 0.111 μM): 98
NS(=O)(=O)OC[C@H]1C[C@@H](Nc2ncncc2C(=O)c2cc(CN3CCn4ccnc4C3)cs2)C[C@@H]1O [I-190, {(1R,2S,4R)-4-[(5-{[4-(5,6-dihydroimidazo[1,2-a]pyrazin-7(8H)-ylmethyl)-2-thienyl]carbonyl}pyrimidin-4-yl)amino]-2-hydroxycyclopentyl}methyl sulfamate]	–	–	10 to 100 nM	inhibition at 0.111 µM (Concentration 0.111 μM): 77%
NS(=O)(=O)OC[C@H]1C[C@@H](Nc2ncncc2C(=O)c2cc([C@H]3NCCc4ccccc43)c(Cl)s2)C[C@@H]1O (single isomer, unassigned) [I-279b, [(1R,2S,4R)-4-{[5-({5-chloro-4-[(1S)-1,2,3,4-tetrahydroisoquinolin-1-yl]-2-thienyl}carbonyl)pyrimidin-4-yl]amino}-2-hydroxycyclopentyl]methyl sulfamate or [(1R,2S,4R)-4-{[5-({5-chloro-4-[(1R)-1,2,3,4-tetrahydroisoquinolin-1-yl]-2-thienyl}carbonyl)pyrimidin-4-yl]amino}-2-hydroxycyclopentyl]methyl sulfamate]	–	–	10 to 100 nM	Percent Inhibition (Concentration 0.111 μM): 84
Cc1cnn(Cc2cc(C(=O)c3cncnc3N[C@@H]3C[C@H](COS(N)(=O)=O)[C@@H](O)C3)sc2C)c1 [I-78, [(1R,2S,4R)-2-hydroxy-4-{[5-({5-methyl-4-[(4-methyl-1H-pyrazol-1-yl)methyl]-2-thienyl}carbonyl)pyrimidin-4-yl]amino}cyclopentyl]methyl sulfamate]	–	–	–	inhibition at 0.111 µM (Concentration 0.111 μM): 98%
NS(=O)(=O)OC[C@H]1C[C@@H](Nc2ncncc2C(=O)c2cc([C@@H]3NCCCc4ccccc43)c(Cl)s2)C[C@@H]1O (mixture of isomers) [I-319, [(1R,2S,4R)-4-{[5-({5-chloro-4-[(1R)-2,3,4,5-tetrahydro-1H-2-benzazepin-1-yl]-2-thienyl}carbonyl)pyrimidin-4-yl]amino}-2-hydroxycyclopentyl]methyl sulfamate and [(1R,2S,4R)-4-{[5-({5-chloro-4-[(1S)-2,3,4,5-tetrahydro-1H-2-benzazepin-1-yl]-2-thienyl}carbonyl)pyrimidin-4-yl]amino}-2-hydroxycyclopentyl]methyl sulfamate]	94%	< 10 nM	–	–
CN1CCc2ccc(Cl)cc2[C@@H]1c1cc(C(=O)c2cncnc2N[C@@H]2C[C@H](COS(N)(=O)=O)[C@@H](O)C2)sc1Cl (single isomer, unassigned) [I-311b, [(1R,2S,4R)-4-{[5-({5-chloro-4-[(1R)-7-chloro-2-methyl-1,2,3,4-tetrahydroisoquinolin-1-yl]-2-thienyl}carbonyl)pyrimidin-4-yl]amino}-2-hydroxycyclopentyl]methyl sulfamate or [(1R,2S,4R)-4-{[5-({5-chloro-4-[(1S)-7-chloro-2-methyl-1,2,3,4-tetrahydroisoquinolin-1-yl]-2-thienyl}carbonyl)pyrimidin-4-yl]amino}-2-hydroxycyclopentyl]methyl sulfamate]	96%	< 10 nM	–	–
NS(=O)(=O)OC[C@H]1C[C@@H](Nc2ncncc2C(=O)c2cc([C@@H]3NCCc4ccccc43)cs2)C[C@@H]1O (single isomer, unassigned) [I-283a, [(1R,2S,4R)-2-hydroxy-4-{[5-({4-[(1R)-1,2,3,4-tetrahydroisoquinolin-1-yl]-2-thienyl}carbonyl)pyrimidin-4-yl]amino}cyclopentyl]methyl sulfamate or [(1R,2S,4R)-2-hydroxy-4-{[5-({4-[(1S)-1,2,3,4-tetrahydroisoquinolin-1-yl]-2-thienyl}carbonyl)pyrimidin-4-yl]amino}cyclopentyl]methyl sulfamate]	99%	< 10 nM	–	–
NS(=O)(=O)OC[C@H]1C[C@@H](Nc2ncncc2C(=O)c2cc([C@@H]3NCCc4ccc(Cl)nc43)c(Cl)s2)C[C@@H]1O (single isomer, unassigned) [I-253b, [(1R,2S,4R)-4-{[5-({5-chloro-4-[(8S)-2-chloro-5,6,7,8-tetrahydro-1,7-naphthyridin-8-yl]-2-thienyl}carbonyl)pyrimidin-4-yl]amino}-2-hydroxycyclopentyl]methyl sulfamate or [(1R,2S,4R)-4-{[5-({5-chloro-4-[(8R)-2-chloro-5,6,7,8-tetrahydro-1,7-naphthyridin-8-yl]-2-thienyl}carbonyl)pyrimidin-4-yl]amino}-2-hydroxycyclopentyl]methyl sulfamate]	–	–	10 to 100 nM	Percent Inhibition (Concentration 0.111 μM): 83
